Results as given in publication PMC7311950, “Potent Tetrahydroquinolone Eliminates Apicomplexan Parasites” (Frontiers in Cellular and Infection Microbiology, 2020).

Experiments:
[1] = molecular target: T1, bovine cytochrome bc1 (Bos taurus, UniProt P00157); assay: Bovine cytochrome bc1 activity assay; type: biochemical; conditions: read-out: Bovine Cytbc1 activity inhibition
T1 construct: Whole fresh bovine heart was collected after slaughter and transported in ice; from tissue; host or cells: bovine heart mitochondria; DDM-solubilised, DEAE-Sepharose and Sephacryl-S300 purified
Procedure: Bovine cytochrome bc1 inhibition assay was carried out in 50 mM KPi pH 7.5, 2 mM EDTA, 10 mM KCN, 30 μM equine heart cytochrome c (Sigma Aldrich), and 2.5 nM bovine cytochrome bc1 at room temperature. 20 mM inhibitors dissolved in DMSO were added to the assay at a desired concentration without prior incubation. […] The reaction was initiated by the addition of 50 μM decylubiquinol (Abcam). The reduced cytochrome c was monitored by the different absorption between 550 and 542 nm using extinction coefficient of 18.1 mM^−1 cm^−1 in a SPECTRAmax Plus 384 UV-visible Spectrometer. The initial kinetic rate is determined as a zero-order reaction and used as the specific activity of cytochrome bc1.

[2] = system: T. gondii (Prugneaud strain expressing luciferase) tachyzoites; assay: Type II Prugneaud luciferase tachyzoite infection of Balb/C mice, IVIS and brain cysts; type: in vivo, Toxoplasma gondii
Procedure: Balb/C mice were infected intraperitoneally (IP) with 20 × 10^3 T. gondii (Prugneaud strain expressing luciferase) tachyzoites. Treatment began 2 h later with JAG21 (5 mg/kg) which was dissolved in DMSO, administered IP in a total volume of 0.05 mL. Mice were imaged every second day starting on day 4 post infection using an IVIS Spectrum (Caliper Life Sciences) for […], with medium binning, 20 min post injection with 150 mg/kg of D-luciferin potassium salt solution.
Brain cysts were searched for in paraffin imbedded tissue of the surviving Prugneaud strain infected treated Balb/C mice in the IVIS study, 30 days after infection which was 16 days after treatment had been discontinued. All treated mice had survived. There were no surviving untreated mice in those experiments.

[3] = system: T. gondii RPS13Δ; assay: RPS13Δ infection of interferon γ receptor knockout mice; type: in vivo, Toxoplasma gondii; conditions: mice to start 5 (Tafenoquine), 5 (JAG21)
Procedure: In pilot studies, herein, interferon γ receptor knockout mice that were not treated were observed following infection. At 7 and at 14 days following infection, spleen, and liver were removed and immune peroxidase stained. At 14 days a group of mice were treated with anhydrotetracycline and when a subset of these mice died, their spleen and liver were removed and immune peroxidase stained.
As in the pilot studies, this RPS13 Δ parasite also was used to infect interferon γ receptor knockout mice in a treatment study. In this separate study, groups of mice were infected with RPS13 Δ. They were treated with tafenoquine on day−1, or JAG21 for 14 days 2 h after infection, or the two together with tafenoquine on day−1 and JAG21 for the first 14 days, or with diluent only for 14 days, as described above. For the initial 14 days, no tetracycline was administered. After that time tetracycline was administered. Mice were observed each day. At the time they appeared to have substantial illness or at the termination of the experiment they were euthanized, tissues fixed in formalin and stained with hematoxylin and eosin or immunoperoxidase stained and parasite burden was assessed.

[4] = system: P. berghei sporozoites; assay: P. berghei causal prophylaxis in vivo model; set-up: species or system Plasmodium berghei; conditions: oral nanoformulation, single dose 2.5 mg/kg day 0 or 3 doses 0.625 mg/kg days −1, 0, +1; C57BL/6 albino mice
From the text: P. berghei sporozoites were obtained from laboratory-reared female Anopheles stephensi mosquitoes which were maintained at 18 degrees C for 17–22 days after feeding on a luciferase expressing P. berghei infected Swiss CD1ICR. Using a dissecting microscope, the salivary glands were extracted from malaria-infected mosquitoes and sporozoites were obtained. Briefly, mosquitoes were separated into head/thorax and abdomen. Thoraxes and heads were triturated with a mortar and pestle and suspended in medium RPMI 1640 containing 1% C57BL/6 mouse serum (Rockland Co, Gilbertsville, PA, USA). […] They were stained with a vital dye containing fluorescein diacetate (50 mg/mL in acetone) and ethidium bromide (20 μg/mL in phosphate buffered saline; Sigma Chemical Co, St. Louis, MO, USA) and counted in a hemocytometer to ensure that inoculated sporozoites were viable following the isolation procedure. […]
Animals were dosed with experimental compounds based on body weight. […] To insure the size of the compounds in the dosing solution were under […], the suspension was homogenized using a homogenizer (PRO Scientific Inc, Monroe, CT, USA) with a 10 mm open-slotted generator running at 20,000–22,000 rpm for 5 min in an ice bath. […] Stability beyond that time was not determined. […]

[5] = PPB (human); type: in vitro ADME; conditions: plasma
[6] = molecular target: hERG (Homo sapiens, UniProt Q12809); assay: hERG liability; type: biochemical
Chain of hERG (Q12809 whole entry): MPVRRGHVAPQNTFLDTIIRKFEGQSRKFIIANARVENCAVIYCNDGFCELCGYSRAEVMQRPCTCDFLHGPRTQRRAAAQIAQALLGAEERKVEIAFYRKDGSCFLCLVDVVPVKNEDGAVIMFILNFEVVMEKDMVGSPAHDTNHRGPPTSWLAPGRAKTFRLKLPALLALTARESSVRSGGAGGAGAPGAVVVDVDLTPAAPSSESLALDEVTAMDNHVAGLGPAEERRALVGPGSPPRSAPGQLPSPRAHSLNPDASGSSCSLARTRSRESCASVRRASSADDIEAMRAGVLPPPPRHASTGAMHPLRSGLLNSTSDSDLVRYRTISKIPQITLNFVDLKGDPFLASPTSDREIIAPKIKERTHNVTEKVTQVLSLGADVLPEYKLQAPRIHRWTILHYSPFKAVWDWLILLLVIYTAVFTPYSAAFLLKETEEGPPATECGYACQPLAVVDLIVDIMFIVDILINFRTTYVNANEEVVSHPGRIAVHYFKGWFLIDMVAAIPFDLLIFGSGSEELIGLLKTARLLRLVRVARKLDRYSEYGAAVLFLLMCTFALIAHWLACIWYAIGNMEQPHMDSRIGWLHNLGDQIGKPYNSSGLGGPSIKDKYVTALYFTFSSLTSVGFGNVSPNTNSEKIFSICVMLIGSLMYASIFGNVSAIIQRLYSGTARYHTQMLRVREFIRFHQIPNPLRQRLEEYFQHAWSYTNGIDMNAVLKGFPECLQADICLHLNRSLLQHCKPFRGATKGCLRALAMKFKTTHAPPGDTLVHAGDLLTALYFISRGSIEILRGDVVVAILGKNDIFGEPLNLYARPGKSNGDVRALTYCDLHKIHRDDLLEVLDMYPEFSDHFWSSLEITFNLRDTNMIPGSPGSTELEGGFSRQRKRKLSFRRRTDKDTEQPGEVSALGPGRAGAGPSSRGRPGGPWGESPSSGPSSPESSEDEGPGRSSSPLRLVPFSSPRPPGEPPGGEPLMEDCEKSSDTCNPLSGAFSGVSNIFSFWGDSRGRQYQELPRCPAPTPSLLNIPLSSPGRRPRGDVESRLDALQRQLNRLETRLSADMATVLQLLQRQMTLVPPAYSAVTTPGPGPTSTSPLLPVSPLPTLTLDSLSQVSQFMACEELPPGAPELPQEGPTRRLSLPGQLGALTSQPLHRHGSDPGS

In the case of `Cc1[nH]c2c(c(=O)c1-c1ccc(Oc3ccc(OC(F)(F)F)cc3)cc1)CCCC2` [JAG21, 2-Methyl-3-(4-(4-(Trifluoromethoxy)Phenoxy)Phenyl)-5,6,7,8-Tetrahydroquinolin-4-One], the inhibition at 0.1 µM ([1]; 0.1 μM) is reported as 36%, the inhibition at 1 µM ([1]; 1 μM) is reported as 63% and the “luciferase expressing parasites by IVIS” value ([2]; 5 mg/kg/day IP) is reported as “eliminates leuciferase expressing parasites”. The “survival of infected mice” value ([2]; 5 mg/kg/day IP for 14 days) was 100%, the cysts in brains ([2]; treated first 14 days with 5 mg/kg/day IP, 5 mg/kg/day) was “No cysts were found” and the “number of mice left at 42” value ([3]; Experiment 1, 6 (Tafenoquine+JAG21)) was 2. For the same compound, the “number of mice left at 37” value ([3]; Experiment 2, 9 (Tafenoquine+JAG21)) was 3, the “survival 30 days post infection” value [4] was 100% and the fraction unbound [5] was 0.001. For the same compound, the IC50 [6] was 22 µM.
